Data on one compound can be found in PMC3886901, “Vestigialization of an Allosteric Switch: Genetic and Structural Mechanisms for the Evolution of Constitutive Activity in a Steroid Hormone Receptor” (PLoS Genetics, 2014).

This experiment relates to T1, AncLophoSR (ancestral lophotrochozoan steroid receptor, ML reconstruction; GenBank KC261633).
T1 construct: resurrected LBD with the hinge domain and C-terminus of CgER, Gal4-DBD fusion
Description: Gal4-DBD fusion dual luciferase reporter assay in transfected CHO-K1 cells. It counts as cell-based, synthetic construct.

As usually defined, the EC50 is the concentration at which the effect is half-maximal. Low readings indicate a more potent agent, high ones a less potent agent.

In turn, `C[C@]12CC[C@@H]3c4ccc(O)cc4CC[C@H]3[C@@H]1CC[C@@H]2O` [17β-estradiol] registered a 50% effective concentration (EC50) of 12 nM.
